The values that follow come from ChEMBL document CHEMBL1151502, “New base-altered adenosine analogues: Synthesis and affinity at adenosine A1 and A2A receptors” (Bioorg Med Chem Lett, 1997).

The target of assay [1] is Adenosine receptor A2a (Rattus norvegicus, UniProt P30543). The assay can be described thus: Displacement of [3H]-CGS- 21680 from Adenosine A2 receptor of rat striatal membranes. The assay is classed as cell membranes, Membrane.
The target of assay [2] is T1, Adenosine receptor A1 (Rattus norvegicus, UniProt P25099).
T1 sequence (P25099 whole entry): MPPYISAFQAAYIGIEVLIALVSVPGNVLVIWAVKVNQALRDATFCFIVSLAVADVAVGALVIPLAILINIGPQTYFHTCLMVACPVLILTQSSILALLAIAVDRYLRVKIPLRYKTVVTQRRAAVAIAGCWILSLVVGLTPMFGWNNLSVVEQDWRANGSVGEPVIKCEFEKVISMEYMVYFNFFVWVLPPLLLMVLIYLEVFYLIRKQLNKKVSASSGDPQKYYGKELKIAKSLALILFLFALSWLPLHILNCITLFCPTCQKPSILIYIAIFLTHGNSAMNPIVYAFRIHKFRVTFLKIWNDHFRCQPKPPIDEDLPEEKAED
The assay is described as follows: Binding affinity at Adenosine A1 receptor in rat brain membranes by [3H](R)-PIA displacement. The assay is classed as cell membranes.

Assay [3] deals with Adenosine receptor A2a (Rattus norvegicus) (UniProt P30543). The assay can be described thus: Displacement of [3H]-CGS- 21680 from Adenosine A2 receptor in rat striatal membranes at 10e-4 M. Format: cell membranes. The settings on record: Membrane. A general note: In a radioligand displacement assay an active substance lowers the binding of a labelled ligand.
Adenosine receptor A2a (Rattus norvegicus), sequence (P30543 whole entry): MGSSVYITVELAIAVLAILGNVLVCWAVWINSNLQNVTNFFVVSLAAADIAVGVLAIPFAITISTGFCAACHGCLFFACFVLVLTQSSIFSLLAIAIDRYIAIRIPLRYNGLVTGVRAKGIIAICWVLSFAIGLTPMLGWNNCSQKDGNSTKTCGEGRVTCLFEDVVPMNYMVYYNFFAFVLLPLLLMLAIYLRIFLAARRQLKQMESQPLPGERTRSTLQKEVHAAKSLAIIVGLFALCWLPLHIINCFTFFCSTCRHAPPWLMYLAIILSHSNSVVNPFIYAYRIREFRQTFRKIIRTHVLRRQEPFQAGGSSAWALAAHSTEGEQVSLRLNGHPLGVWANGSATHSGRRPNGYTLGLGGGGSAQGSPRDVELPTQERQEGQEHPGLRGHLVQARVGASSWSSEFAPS
Assay [4] concerns the target Adenosine receptor A1 (Rattus norvegicus) (UniProt P25099). The assay can be described thus: Binding affinity for Adenosine A1 receptor.
For assay [5], the target named is Adenosine receptors; A1 & A2a (Rattus norvegicus) (UniProt P25099+P30543). The assay can be described thus: Selective ratio of A1 receptor to A2A receptor. The assay is classed as protein assay.
Adenosine receptors; A1 & A2a (Rattus norvegicus), sequence (P30543 whole entry, looked up, one chain of several): as the sequence (P30543 whole entry) above
Assay [6] deals with Adenosine receptor A2a (Rattus norvegicus) (UniProt P30543). The assay is described as follows: Displacement of [3H]-CGS- 21680 from Adenosine A2 receptor in rat striatal membranes at 10e-5 M. Format: cell membranes. The settings on record: Membrane.

What is called pKi is the negative decadic logarithm of the Ki, by convention in mol/L. High values mean a small Ki, low ones a large Ki.

pKi: −log10 of the molar value.

Adenosine receptor A2a, sequence (P30543 whole entry): as above

On to `OC[C@H]1OC(n2cnc3c(NN4CCCCC4)nc(I)nc32)[C@H](O)[C@@H]1O` (stereo not given in full), for which the pKi was 5.06 in assay [1] and 7.15 in assay [2].

For `OC[C@@H](Cc1ccccc1)Nc1nc(I)nc2c1ncn2C1O[C@H](CO)[C@@H](O)[C@H]1O` (stereo not given in full), in assay [3], the Displacement came out at 49%. This molecule had a pKi in assay [2] of 6.00.

Turning to `OC[C@H](Cc1ccccc1)Nc1nc(Cl)nc2c1ncn2C1O[C@H](CO)[C@@H](O)[C@H]1O` (stereo not given in full), the pKi in assay [1] was 6.31; in assay [2], 8.62.

Regarding `OC[C@H]1O[C@@H](n2cnc3c(NN4CCCC4)ncnc32)[C@H](O)[C@@H]1O` (stereo in doubt) [listing 1 of 2 here], the pKi in assay [1] is 5.55; in assay [2] it was 8.10.

With `OC[C@H]1OC(n2cnc3c(NN4CCOCC4)nc(I)nc32)[C@H](O)[C@@H]1O` (stereo not given in full), the pKi was 4.71 in assay [1] and 6.95 in assay [2].

With `OC[C@H]1O[C@@H](n2cnc3c(NN4CCOCC4)nc(Cl)nc32)[C@H](O)[C@@H]1O`, the pKi is 8.10 in assay [4], 5.72 in assay [1] and 8.31 in assay [2].

Take `OC[C@H]1O[C@@H](n2cnc3c(NN4CCCCC4)nc(Cl)nc32)[C@H](O)[C@@H]1O`: the values for the pKi in assay [1] and in assay [2] were 6.03 and 8.45, respectively.

Regarding `OC[C@H]1O[C@@H](n2cnc3c(NN4CCCC4)ncnc32)[C@H](O)[C@@H]1O` (stereo in doubt; 3), the negative logarithm of the Ki (pKi) in assay [1] was 5.55; in assay [2], 8.10.

As to `OC[C@H]1O[C@@H](n2cnc3c(NN4CCCC4)ncnc32)[C@H](O)[C@@H]1O` (stereo in doubt) [listing 2 of 2 here], the Ratio in assay [5] is 350.

In assay [6], `CC(C)C[C@@H](CO)Nc1ncnc2c1ncn2C1O[C@H](CO)[C@@H](O)[C@H]1O` (stereo not given in full) yielded a Displacement of less than 10%. The molecule also had a pKi in assay [2] of 6.86.

For the molecule `OC[C@H]1O[C@@H](n2cnc3c(NN4CCC(Sc5ccccc5)CC4)nc(Cl)nc32)[C@H](O)[C@@H]1O`, in assay [5], the Ratio turned out to be 522. In assay [1], this molecule showed a pKi of 6.33.

Consider `CC(C)C[C@H](CO)Nc1ncnc2c1ncn2C1O[C@H](CO)[C@@H](O)[C@H]1O` (stereo not given in full), for which the pKi is 4.52 in assay [1] and 6.65 in assay [2].

Regarding `OC[C@H](Cc1ccccc1)Nc1nc(I)nc2c1ncn2C1O[C@H](CO)[C@@H](O)[C@H]1O` (stereo not given in full), the pKi in assay [1] is 5.87; in assay [2], 7.64.

`CC(Nc1ncnc2c1ncn2[C@@H]1O[C@H](CO)[C@@H](O)[C@H]1O)[C@@H](O)c1ccccc1` (stereo not given in full): the Ratio in assay [5] amounted to 144. Besides, the pKi in assay [1] is 6.41; in assay [2], 8.57.

Regarding `OC[C@H]1OC(n2cnc3c(NN4CCOCC4)ncnc32)[C@H](O)[C@@H]1O` (stereo not given in full), the Displacement in assay [3] stood at 36%. This molecule gave a pKi in assay [2] of 4.81.

As for `OC[C@@H](Cc1ccccc1)Nc1nc(Cl)nc2c1ncn2C1O[C@H](CO)[C@@H](O)[C@H]1O` (stereo not given in full), the pKi in assay [1] was 4.98; in assay [2] it was 6.34.

`OC[C@H]1O[C@@H](n2cnc3c(NN4CCCCC4)ncnc32)[C@H](O)[C@@H]1O` showed a Displacement in assay [3] of 29%. Further, the negative logarithm of the Ki (pKi) in assay [2] is 8.14.
